# Experiment: Anticancer human tumor 997537-175-T-J1-PDC patient-derived colon adenocarcinoma cell line growth inhibition [POLQ]
# Settings: 997537-175-T-J1-PDC complex spheroid viability, combination with POLQ inhibitors; for IC50: curve of first compound; for viability, T/C: stronger effect = lower value
# Procedure, shortened: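 Complex spheroid viability model combining PDC tumour cells with endothelial (HUVEC) and MSC stromal cells. Novobiocin, ART-558 or RP6685 were tested singly and in combination with standard and investigational anticancer drugs. Each was titrated in half-log steps from near clinical Cmax, or from 10 microM where Cmax was unknown.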
# [1] = second compound 0.0316 µM, first compound 0.00316 µM
# [2] = second compound 0.0316 µM, first compound 0.01 µM
# [3] = second compound 0.0316 µM, first compound 0.0316 µM
# [4] = second compound 0.0316 µM, first compound 0.1 µM
# [5] = second compound 0.1 µM, first compound 0.00316 µM
# [6] = second compound 0.1 µM, first compound 0.01 µM
# [7] = second compound 0.1 µM, first compound 0.0316 µM
# [8] = second compound 0.1 µM, first compound 0.1 µM
# [9] = second compound 0.316 µM, first compound 0.00316 µM
# [10] = second compound 0.316 µM, first compound 0.01 µM
# [11] = second compound 0.316 µM, first compound 0.0316 µM
# [12] = second compound 0.316 µM, first compound 0.1 µM
# [13] = second compound 1 µM, first compound 0.00316 µM
# [14] = second compound 1 µM, first compound 0.01 µM
# [15] = second compound 1 µM, first compound 0.0316 µM
# [16] = second compound 1 µM, first compound 0.1 µM
# [17] = second compound 3.16 µM, first compound 0.00316 µM
# [18] = second compound 3.16 µM, first compound 0.01 µM
# [19] = second compound 3.16 µM, first compound 0.0316 µM
# [20] = second compound 3.16 µM, first compound 0.1 µM
# [21] = second compound 10 µM, first compound 0.00316 µM
# [22] = second compound 10 µM, first compound 0.01 µM
# [23] = second compound 10 µM, first compound 0.0316 µM
# [24] = second compound 10 µM, first compound 0.1 µM
# 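Further: luminescence signal used as a surrogate for viable cells; spheroids exposed to drugs for seven days before readout.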
smiles,measurement,setting,value
COc1cccc(OCCCN)c1-c1cc(Nc2cnc(C#N)cn2)n[nH]1 + COC1C(OC(N)=O)C(O)C(Oc2ccc3c(O)c(NC(=O)c4ccc(O)c(CC=C(C)C)c4)c(=O)oc3c2C)OC1(C)C,IC50,second compound 0.0316 µM,46.8 nM
same,IC50,second compound 0.1 µM,121 nM
same,IC50,second compound 0.316 µM,77.8 nM
same,IC50,second compound 1 µM,32.4 nM
same,IC50,second compound 3.16 µM,57.5 nM
same,IC50,second compound 10 µM,59.9 nM
same,"viability, T/C",[1],100%
same,"viability, T/C",[2],95.6%
same,"viability, T/C",[3],59.9%
same,"viability, T/C",[4],28.1%
same,"viability, T/C","second compound 0.0316 µM, first compound 0.316 µM",33.6%
same,"viability, T/C","second compound 0.0316 µM, first compound 1 µM",30.7%
same,"viability, T/C",[5],106%
same,"viability, T/C",[6],64.9%
same,"viability, T/C",[7],76.8%
same,"viability, T/C",[8],43.2%
same,"viability, T/C","second compound 0.1 µM, first compound 0.316 µM",51.6%
same,"viability, T/C","second compound 0.1 µM, first compound 1 µM",17%
same,"viability, T/C",[9],107%
same,"viability, T/C",[10],95%
same,"viability, T/C",[11],63.8%
same,"viability, T/C",[12],55.3%
same,"viability, T/C","second compound 0.316 µM, first compound 0.316 µM",16.9%
same,"viability, T/C","second compound 0.316 µM, first compound 1 µM",30.2%
same,"viability, T/C",[13],105%
same,"viability, T/C",[14],88%
same,"viability, T/C",[15],52.2%
same,"viability, T/C",[16],24.1%
same,"viability, T/C","second compound 1 µM, first compound 0.316 µM",23.2%
same,"viability, T/C","second compound 1 µM, first compound 1 µM",24.4%
same,"viability, T/C",[17],104%
same,"viability, T/C",[18],80.7%
same,"viability, T/C",[19],55.8%
same,"viability, T/C",[20],48.7%
same,"viability, T/C","second compound 3.16 µM, first compound 0.316 µM",28.6%
same,"viability, T/C","second compound 3.16 µM, first compound 1 µM",47.1%
same,"viability, T/C",[21],95.2%
same,"viability, T/C",[22],79.8%
same,"viability, T/C",[23],73.1%
same,"viability, T/C",[24],31.4%
same,"viability, T/C","second compound 10 µM, first compound 0.316 µM",24.9%
same,"viability, T/C","second compound 10 µM, first compound 1 µM",28%
CC[C@@]1(O)C(=O)OCc2c1cc1n(c2=O)Cc2cc3c(CN(C)C)c(O)ccc3nc2-1 + Nc1ccc(C#CCN(C(=O)Cc2ncc(C(F)(F)F)cc2C(F)(F)F)c2ccc(F)cc2)nn1,IC50,second compound 0.0316 µM,> 100 nM
same,IC50,second compound 0.1 µM,> 100 nM
same,IC50,second compound 0.316 µM,90.8 nM
same,IC50,second compound 1 µM,> 100 nM
same,IC50,second compound 3.16 µM,> 100 nM
same,IC50,second compound 10 µM,> 100 nM
same,"viability, T/C","second compound 0.0316 µM, first compound 0.000316 µM",104%
same,"viability, T/C","second compound 0.0316 µM, first compound 0.001 µM",94.6%
same,"viability, T/C",[1],104%
same,"viability, T/C",[2],111%
same,"viability, T/C",[3],94.7%
same,"viability, T/C",[4],66.3%
same,"viability, T/C","second compound 0.1 µM, first compound 0.000316 µM",101%
same,"viability, T/C","second compound 0.1 µM, first compound 0.001 µM",91%
same,"viability, T/C",[5],101%
same,"viability, T/C",[6],103%
same,"viability, T/C",[7],83.2%
same,"viability, T/C",[8],58.3%
same,"viability, T/C","second compound 0.316 µM, first compound 0.000316 µM",104%
same,"viability, T/C","second compound 0.316 µM, first compound 0.001 µM",90.9%
same,"viability, T/C",[9],107%
same,"viability, T/C",[10],101%
same,"viability, T/C",[11],77.3%
same,"viability, T/C",[12],47.5%
same,"viability, T/C","second compound 1 µM, first compound 0.000316 µM",93.3%
same,"viability, T/C","second compound 1 µM, first compound 0.001 µM",89.8%
same,"viability, T/C",[13],102%
same,"viability, T/C",[14],101%
same,"viability, T/C",[15],83.9%
same,"viability, T/C",[16],57.2%
same,"viability, T/C","second compound 3.16 µM, first compound 0.000316 µM",95.7%
same,"viability, T/C","second compound 3.16 µM, first compound 0.001 µM",98.2%
same,"viability, T/C",[17],107%
same,"viability, T/C",[18],100%
same,"viability, T/C",[19],79%
same,"viability, T/C",[20],60.6%
same,"viability, T/C","second compound 10 µM, first compound 0.000316 µM",96.7%
same,"viability, T/C","second compound 10 µM, first compound 0.001 µM",99.4%
same,"viability, T/C",[21],116%
same,"viability, T/C",[22],107%
same,"viability, T/C",[23],81.3%
same,"viability, T/C",[24],58.5%
